Laboratory results published in PMC6789174 (Drug Design, Development and Therapy, 2019).
≈ marks a conversion by molar mass, not a printed value.

Legend:
[1] = target: Acetylcholinesterase (Homo sapiens, UniProt P22303); assay: biochemical
[2] = system: Proteus vulgaris; assay: Anti-bacterial activity, agar well diffusion; type: cell-based
[3] = target: Butyrylcholinesterase (Homo sapiens, UniProt P06276); assay: Anticholinesterase assay; type: biochemical
[4] = target: T1, porcine α-amylase (Sus scrofa, UniProt P00690); assay: biochemical
T1 sequence (P00690 16-511): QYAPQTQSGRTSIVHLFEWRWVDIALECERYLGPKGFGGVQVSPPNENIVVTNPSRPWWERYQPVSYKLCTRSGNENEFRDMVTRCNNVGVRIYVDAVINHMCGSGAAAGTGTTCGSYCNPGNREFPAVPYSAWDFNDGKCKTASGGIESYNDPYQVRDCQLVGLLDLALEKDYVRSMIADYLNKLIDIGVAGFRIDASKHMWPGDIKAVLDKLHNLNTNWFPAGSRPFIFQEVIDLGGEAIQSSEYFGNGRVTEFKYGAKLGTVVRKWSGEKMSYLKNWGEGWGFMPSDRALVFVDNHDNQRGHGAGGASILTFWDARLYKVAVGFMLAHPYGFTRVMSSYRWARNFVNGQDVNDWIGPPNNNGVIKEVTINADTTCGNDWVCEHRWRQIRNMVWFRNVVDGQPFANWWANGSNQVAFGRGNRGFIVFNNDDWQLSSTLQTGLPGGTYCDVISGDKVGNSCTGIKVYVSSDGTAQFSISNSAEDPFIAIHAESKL

[5] = system: Staphylococcus aureus; assay: Anti-bacterial activity, agar well diffusion; type: cell-based
[6] = target: T2, glucose-6-phosphatase (Homo sapiens, UniProt P35575); assay: Glucose-6-phosphatase activity; type: biochemical; conditions: 33°C, pH 6.7, control 72.0
T2 sequence (P35575 1-357): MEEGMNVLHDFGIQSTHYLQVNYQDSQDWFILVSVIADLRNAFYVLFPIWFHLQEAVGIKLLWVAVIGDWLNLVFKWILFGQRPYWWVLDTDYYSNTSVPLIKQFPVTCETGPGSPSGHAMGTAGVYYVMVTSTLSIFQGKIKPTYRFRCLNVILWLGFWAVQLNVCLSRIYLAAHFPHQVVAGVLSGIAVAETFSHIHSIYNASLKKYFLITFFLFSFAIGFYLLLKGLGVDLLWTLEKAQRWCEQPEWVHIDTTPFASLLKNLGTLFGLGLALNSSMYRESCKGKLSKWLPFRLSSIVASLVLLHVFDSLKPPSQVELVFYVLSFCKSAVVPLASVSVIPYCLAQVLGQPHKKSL

[7] = ABTS free radical scavenging
[8] = target: α-glucosidase (Saccharomyces cerevisiae, UniProt P53341); assay: Alpha glucosidase inhibition; type: biochemical; conditions: concentration 250 μg/mL
[9] = system: Agrobacterium tumefaction; assay: Anti-bacterial activity, agar well diffusion; type: cell-based
[10] = DPPH free radical scavenging
[11] = read-out: %AChE Inhibition (mean ± SEM)
[12] = read-out: ZI (Zone of inhibition), Proteus vulgaris
[13] = read-out: %BChE Inhibition (mean ± SEM)
[14] = read-out: ZI (Zone of inhibition), Staphylococcus aureus
[15] = read-out: ZI (Zone of inhibition), Agrobacterium tumefaction

Acetylcholinesterase, sequence (P22303 32-614, species assumed): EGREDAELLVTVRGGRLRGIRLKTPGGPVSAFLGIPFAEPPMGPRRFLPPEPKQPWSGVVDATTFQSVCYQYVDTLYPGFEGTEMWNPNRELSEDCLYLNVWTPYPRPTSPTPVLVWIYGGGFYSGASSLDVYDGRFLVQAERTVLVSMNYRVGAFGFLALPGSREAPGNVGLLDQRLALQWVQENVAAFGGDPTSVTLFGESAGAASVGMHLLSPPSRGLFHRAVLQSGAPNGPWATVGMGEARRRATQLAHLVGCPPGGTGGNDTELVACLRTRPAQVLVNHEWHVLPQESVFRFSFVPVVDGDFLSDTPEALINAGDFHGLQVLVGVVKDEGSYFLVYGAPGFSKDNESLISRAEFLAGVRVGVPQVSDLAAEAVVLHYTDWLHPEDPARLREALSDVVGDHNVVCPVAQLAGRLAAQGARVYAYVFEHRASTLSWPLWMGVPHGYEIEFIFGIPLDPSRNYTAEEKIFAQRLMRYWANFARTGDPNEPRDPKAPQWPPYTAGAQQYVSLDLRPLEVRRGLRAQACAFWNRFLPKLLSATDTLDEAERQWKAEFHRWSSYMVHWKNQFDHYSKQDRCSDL
Butyrylcholinesterase, sequence (P06276 29-602): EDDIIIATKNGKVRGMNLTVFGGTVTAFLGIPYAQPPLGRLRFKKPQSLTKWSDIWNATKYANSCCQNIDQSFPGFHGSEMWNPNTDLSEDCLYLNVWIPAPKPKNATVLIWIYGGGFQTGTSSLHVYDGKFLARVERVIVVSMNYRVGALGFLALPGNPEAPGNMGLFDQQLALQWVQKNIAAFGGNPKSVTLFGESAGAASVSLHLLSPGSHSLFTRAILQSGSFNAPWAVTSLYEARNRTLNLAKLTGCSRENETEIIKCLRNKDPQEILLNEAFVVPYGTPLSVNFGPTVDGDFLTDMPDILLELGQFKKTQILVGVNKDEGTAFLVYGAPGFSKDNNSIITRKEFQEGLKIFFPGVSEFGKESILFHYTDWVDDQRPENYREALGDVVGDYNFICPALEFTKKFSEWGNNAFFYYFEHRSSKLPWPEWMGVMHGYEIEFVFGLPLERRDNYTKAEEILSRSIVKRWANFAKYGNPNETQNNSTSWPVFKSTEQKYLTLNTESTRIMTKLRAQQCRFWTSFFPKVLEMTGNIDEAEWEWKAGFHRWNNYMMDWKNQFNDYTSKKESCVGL
α-glucosidase, sequence (P53341 whole entry, the tested form may be a part): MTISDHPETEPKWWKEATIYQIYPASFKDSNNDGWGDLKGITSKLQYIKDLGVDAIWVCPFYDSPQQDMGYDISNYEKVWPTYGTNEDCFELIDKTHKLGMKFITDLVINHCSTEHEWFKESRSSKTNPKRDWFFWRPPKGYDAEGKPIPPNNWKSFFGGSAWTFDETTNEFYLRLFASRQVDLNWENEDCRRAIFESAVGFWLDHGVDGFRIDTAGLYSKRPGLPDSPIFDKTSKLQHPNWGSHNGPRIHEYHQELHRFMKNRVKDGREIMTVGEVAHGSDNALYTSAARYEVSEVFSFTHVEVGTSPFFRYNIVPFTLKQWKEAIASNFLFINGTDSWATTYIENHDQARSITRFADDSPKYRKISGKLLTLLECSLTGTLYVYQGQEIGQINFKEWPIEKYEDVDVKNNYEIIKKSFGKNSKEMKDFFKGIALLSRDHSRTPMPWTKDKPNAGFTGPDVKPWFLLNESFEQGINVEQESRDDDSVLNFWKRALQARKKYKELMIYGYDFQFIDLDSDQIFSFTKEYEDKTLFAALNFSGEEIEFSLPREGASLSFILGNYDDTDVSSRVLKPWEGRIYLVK

In the case of `Cc1ccc(NC(=S)Nc2ccccc2)c(C)c1` [Compound IV, 1-(2,4-dimethylphenyl)-3-phenylthiourea], the IC50 [1] is reported as 1960 µM, the inhibition at 125 µg/mL [1, 11] is reported as 42 ± 1.01% and the inhibition at 250 µg/mL [1, 11] is reported as 45.1 ± 1.83%. The inhibition at 500 µg/mL [1, 11] was 50 ± 1.88%, the inhibition at 1000 µg/mL [1, 11] was 64 ± 1.7% and the MIC ([2]; read-out: MIC, Proteus vulgaris) was 11.9 µg/mL (≈ 46.5 µM). The zone of inhibition at 10 µg/mL [2, 12] was 14 mm, the zone of inhibition at 20 µg/mL [2, 12] was 18 mm and the zone of inhibition at 30 µg/mL [2, 12] was 23 mm. It also gave an IC50 [3] of 585 µM, an inhibition at 125 µg/mL [3, 13] of 49.8 ± 1.53% and an inhibition at 250 µg/mL [3, 13] of 53.5 ± 1.07%. For the same compound, the inhibition at 500 µg/mL [3, 13] was 60.5 ± 1.61%, the inhibition at 1000 µg/mL [3, 13] was 76.1 ± 1.9% and the IC50 [4] was 242 µM. For the same compound, the inhibition at 125 µg/mL ([4]; read-out: %Inhibition (mean ± SEM), alpha amylase, concentration 125 µg/mL) was 69 ± 1.19%, the inhibition at 250 µg/mL ([4]; read-out: %Inhibition (mean ± SEM), alpha amylase, concentration 250 µg/mL) was 75.63 ± 0.63% and the inhibition at 500 µg/mL ([4]; read-out: %Inhibition (mean ± SEM), alpha amylase, concentration 500 µg/mL) was 79.2 ± 1.09%. It also gave an inhibition at 1000 µg/mL ([4]; read-out: %Inhibition (mean ± SEM), alpha amylase, concentration 1000 µg/mL) of 80.1 ± 2.02%, an MIC ([5]; read-out: MIC, Staphylococcus aureus) of 4.03 µg/mL (≈ 15.7 µM) and a zone of inhibition at 10 µg/mL [5, 14] of 21 mm. For the same compound, the zone of inhibition at 20 µg/mL [5, 14] was 23 mm, the zone of inhibition at 30 µg/mL [5, 14] was 26 mm and the “Total Activity of glucose-6-phosphatase” value ([6]; concentration 125 µg/mL) was 17.70 mg of P released per hour. The “Total Activity of glucose-6-phosphatase” value ([6]; concentration 250 µg/mL) was 13.58 mg of P released per hour, the “Total Activity of glucose-6-phosphatase” value ([6]; concentration 500 µg/mL) was 11.77 mg of P released per hour and the “ABTS IC50” value [7] was 100 µg/mL. For the same compound, the “ABTS radical scavenging, in words” value [7] was “moderately effective”, the “ABTS % I (mean ± S.E.M)” value ([7]; concentration 125 μg/mL) was 64.81 ± 1.05% and the “ABTS % I (mean ± S.E.M)” value ([7]; concentration 250 μg/mL) was 70.13± 0.05%. For the same compound, the “ABTS % I (mean ± S.E.M)” value ([7]; concentration 500 μg/mL) was 74.99 ± 1.51%, the “ABTS % I (mean ± S.E.M)” value ([7]; concentration 1000 μg/mL) was 78.15 ± 1.21% and the “%Inhibition (mean ± SEM), alpha glucosidase” value [8] was 55.88 ± 2.04%. It also gave an MIC ([9]; read-out: MIC, Agrobacterium tumefaction) of 13.5 µg/mL (≈ 52.6 µM), a zone of inhibition at 10 µg/mL [9, 15] of 14 mm and a zone of inhibition at 20 µg/mL [9, 15] of 18 mm. For the same compound, the zone of inhibition at 30 µg/mL [9, 15] was 23 mm, the “DPPH IC50” value [10] was 64 µg/mL and the “DPPH % I (mean ± S.E.M)” value ([10]; concentration 125 μg/mL) was 66.15 ± 1.70%. The “DPPH % I (mean ± S.E.M)” value ([10]; concentration 250 μg/mL) was 69.31 ± 2.11%, the “DPPH % I (mean ± S.E.M)” value ([10]; concentration 500 μg/mL) was 74.13 ± 1.51% and the “DPPH % I (mean ± S.E.M)” value ([10]; concentration 1000 μg/mL) was 79.15 ± 1.23%.
